Laboratory results from US20170291905A1, “ARGININE […] INHIBITORS AND USES THEREOF” (Epizyme, Inc., priority 2014, published 2017).
pIC50: −log10 of the molar value. Where a name gives a salt, the structure may show the parent alone.

The compounds below were run against full-length human PRMT8 isoform 1 (Homo sapiens, UniProt Q9NR22) (assay: PRMT8 biochemical assay (3H-SAM Flashplate, histone H4 31-45 peptide)). Conditions: 1.5 nM PRMT8, 30 min preincubation, 150 nM peptide.
Text: S-adenosylmethionine (SAM), S-adenosylhomocysteine (SAH), bicine, Tween20, dimethylsulfoxide (DMSO), bovine skin gelatin (BSG), isopropyl-β-D-thiogalactopyranoside (IPTG), and Tris(2-carboxyethyl)phosphine hydrochloride solution (TCEP) were purchased from Sigma-Aldrich at the highest level of purity possible. ^3H-SAM was purchase from American Radiolabeled Chemicals with a specific activity of 80 Ci/mmol. 384-well streptavidin Flashplates were purchased from PerkinElmer.
Peptide representative of human histone H4 residues 31-45 was synthesized with an N-terminal linker-affinity tag motif and a C-terminal amide cap by 21st Century Biochemicals. The peptide was purified by high-performance liquid chromatography (HPLC) to greater than 95% purity and confirmed by liquid chromatography mass spectrometry (LC-MS). The sequence was Biot-Ahx-[…]-amide (SEQ ID NO.:8).
The resulting construct encodes an N-terminal GST tag and a thrombin cleavage sequence
E. coli (BL21(DE3) Gold, Stratagene) made competent by the CaCl2 method were transformed with the PRMT8 construct and ampicillin selection. Protein over-expression was accomplished by growing the PRMT8 expressing E. coli clone and inducing expression with 0.3 mM IPTG at 16° C. The culture was grown for 12 hours, harvested by centrifugation, and stored at −80° C. for purification.
GST-tagged PRMT8 was eluted with 50 mM Tris, 2 mM glutathione, pH 7.8. Pooled fractions were cleaved by thrombin (10U) and dialysed in buffer A. GST was removed by reloading the cleaved protein sample onto glutathione sepharose column and PRMT8 was collected in the flow-through fractions. PRMT8 was purified further by ceramic hydroxyapatite chromatography. The column was washed with 50 mM phosphate buffer, 100 mM NaCl, 5% glycerol, 5 mM […], pH 7.8 and PRMT8 was eluted by 100 mM phosphate in the same buffer. Protein was concentrated and buffer was exchanged to 50 mM Tris, 300 mM NaCl, 10% glycerol, 5 mM β-mercaptoethanol, pH 7.8 by ultrafiltration. The purity of recovered protein was 89%.
General Procedure for PRMT8 Enzyme Assays on Peptide Substrates.
The assays were all performed in a buffer consisting of 20 mM Bicine (pH=7.6), 1 mM TCEP, 0.005% BSG, and 0.002% Tween 20, prepared on the day of use. Compounds in 100% DMSO (1 ul) were spotted into a polypropylene 384-well V-bottom plates (Greiner) using a Platemate Plus outfitted with a 384-channel head (Thermo Scientific). DMSO (1 ul) was added to Columns 11, 12, 23, 24, rows A-H for the maximum signal control and 1 ul of SAH, a known product and inhibitor of PRMT8, was added to columns 11, 12, 23, 24, rows I-P for the minimum signal control. A cocktail (40 ul) containing the PRMT8 enzyme was added by Multidrop Combi (Thermo-Fisher). The compounds were allowed to incubate with PRMT8 for 30 min at room temperature, then a cocktail (10 ul) containing ^3H-SAM and peptide was added to initiate the reaction (final volume=51 ul). The final concentrations of the components were as follows: PRMT8 was 1.5 nM, ^3H-SAM was 50 nM, non-radiolabeled SAM was 550 nM, peptide was 150 nM, SAH in the minimum signal control wells was 1 mM, and the DMSO concentration was 2%. The assays were stopped by the addition of non-radiolabeled SAM (10 ul) to a final concentration of 400 uM, which dilutes the ^3H-SAM to a level where its incorporation into the peptide substrate is no longer detectable. 50 ul of the reaction in the 384-well polypropylene plate was then transferred to a 384-well Flashplate and the biotinylated peptides were allowed to bind to the streptavidin surface for at least 1 hour before being washed once with 0.1% Tween20 in a Biotek ELx405 plate washer. The plates were then read in a PerkinElmer TopCount plate reader to measure the quantity of ^3H-labeled peptide bound to the Flashplate surface, measured as disintegrations per minute (dpm) or alternatively, referred to as counts per minute (cpm). […]

full-length human PRMT8 isoform 1, sequence (Q9NR22 whole entry, canonical isoform): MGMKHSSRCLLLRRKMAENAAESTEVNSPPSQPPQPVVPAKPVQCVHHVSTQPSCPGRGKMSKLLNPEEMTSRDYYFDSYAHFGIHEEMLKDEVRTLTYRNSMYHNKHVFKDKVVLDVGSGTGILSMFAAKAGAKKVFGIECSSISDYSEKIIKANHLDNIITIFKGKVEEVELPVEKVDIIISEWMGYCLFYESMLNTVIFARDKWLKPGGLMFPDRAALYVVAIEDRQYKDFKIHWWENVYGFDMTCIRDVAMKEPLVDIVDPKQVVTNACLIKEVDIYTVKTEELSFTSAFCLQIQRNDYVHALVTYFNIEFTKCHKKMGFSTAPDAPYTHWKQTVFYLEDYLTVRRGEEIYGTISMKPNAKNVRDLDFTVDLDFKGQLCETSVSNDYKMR

Row | SMILES | pIC50
1 | CNCCN(C)Cc1nn[nH]c1[C@H]1CC[C@]2(CC1)CC(C)(C)CO2 [compound 89] | 6.86
2 | CNCCN(C)Cc1nncn1[C@H]1CC[C@]2(CC1)CC(C)(C)CO2 [compound 90] | < 5.00
3 | CNCCN(C)Cc1nccn1[C@H]1CC[C@]2(CC1)CC(C)(C)CO2 [compound 91] | 5.93
4 | CNCCN(C)Cc1nnc(C)n1[C@H]1CC[C@]2(CC1)CC(C)(C)CO2 [compound 93] | < 5.00
5 | CNCCN(C)Cc1c(Cl)ncn1[C@H]1CC[C@]2(CC1)CC(C)(C)CO2 [compound 97] | 6.28
6 | CNCCN(C)Cc1nc(C)sc1[C@H]1CC[C@]2(CC1)CC(C)(C)CO2 [compound 99] | 7.31
7 | CN(CCN)Cc1nn(C)cc1[C@H]1CC[C@]2(CC1)CC(C)(C)CO2 [compound 102] | 7.41
8 | CNCCN(C)Cc1nn(C)cc1[C@H]1CC[C@]2(CC1)CC(C)(C)CO2 [compound 103] | 7.37
9 | CN(CCN)Cc1c[nH]nc1[C@H]1CC[C@@]2(CC1)CC(C)(C)CO2 [compound 105] | 8.04
10 | CNCCN(C)Cc1c(C)noc1[C@H]1CC[C@]2(CC1)CC(C)(C)CO2 [compound 114] | 7.17
11 | CNCCN(C)Cc1n[nH]cc1[C@H]1CC[C@@]2(CC1)CC(C)(C)CO2 [compound 115] | 7.79
12 | CNCCN(C)Cc1n[nH]cc1[C@H]1CC[C@]2(CC1)CC(C)(C)CO2 [compound 116] | 7.50
13 | CNCCN(C)Cc1nocc1[C@H]1CC[C@@]2(CC1)CC(C)(C)CO2 [compound 117] | 7.39
14 | CNCCN(C)Cc1nocc1[C@H]1CC[C@]2(CC1)CC(C)(C)CO2 [compound 118] | 6.32
15 | CCOCC1(COCC)CCC(c2nn(C)cc2CN(C)CCN)CC1 [compound 124] | 7.59
16 | CNCCN(C)Cc1c[nH]nc1C1CCC2(CC1)CC(C)(C)OC2=O (centres unmarked) [compound 125] | 7.80

Other lines, results leading:

Row | pIC50 | SMILES
17 | 5.43 | CNCCN(C)Cc1cncn1[C@H]1CC[C@]2(CC1)CC(C)(C)CO2 [compound 98]
18 | 7.36 | CNCCN(C)Cc1sc(C)nc1[C@H]1CC[C@]2(CC1)CC(C)(C)CO2 [compound 100]
19 | 7.17 | CN(CCN)Cc1c[nH]nc1[C@H]1CC[C@]2(CC1)CC(C)(C)CO2 [compound 106]
20 | 7.29 | CNCCN(C)Cc1c(C)noc1[C@H]1CC[C@@]2(CC1)CC(C)(C)CO2 [compound 113]
21 | 7.24 | CCOCC1(COCC)CCC(c2n[nH]cc2CN(C)CCN(C)C)CC1 [compound 121]
22 | 7.55 | CCOCC1(COCC)CCC(c2nn(C)cc2CN(C)CCNC)CC1 [compound 122]
23 | 8.02 | CCOCC1(COCC)CCC(c2n[nH]cc2CN(C)CCN)CC1 [compound 123]
24 | 7.67 | CNCCN(C)Cc1c[nH]nc1[C@H]1CC[C@@]2(CC1)COC(C)(C)C2 [compound 126, N1-((3-((5r,8r)-3,3-dimethyl-2-oxaspiro[4.5]decan-8-yl)-1H-pyrazol-4-yl)methyl)-N1,N2-dimethylethane-1,2-diamine]
25 | 7.79 | CNCCN(C)Cc1c[nH]nc1[C@H]1CC[C@]2(CCCCO2)CC1 [compound 127, methyl([2-[methyl([3-[(6s,9r)-1-oxaspiro[5.5]undecan-9-yl]-1H-pyrazol-4-yl]methyl)amino]ethyl])amine bistrifluoroacetic acid salt]

Same assay, conditions: […] PRMT8, 30 min preincubation, 150 nM peptide

Row | pIC50 | SMILES
26 | 7.30 | CNCCN(C)Cc1nn(C)nc1C1CCC2(CC1)CC(C)(C)CO2 (centres unmarked) [compound 86]
